Experimental data published in patent publication US10611728B2, “Isoindoline compositions and methods for treating neurodegenerative disease” (priority 2014, dated 2020).

Key:
[1] = Microsomal stability in mouse liver microsomes (MLM); format: in vitro ADME; conditions: mouse, microsomes
Procedure: A first pharmacokinetic study was performed in microsomes of mice mouse liver microsomes, MLM) by a commercial contract research organization. The studies were performed according to Obach, R. S et al. (1997) J. Pharmacol. Exp. Ther., 283: 46-58, which is incorporated herein by reference.

[2] = tested on: neuronal cultures; assay: Functional neuronal phenotype in neuronal cultures; format: cell-based
Procedure: Neuronal cultures are treated with various concentrations of sigma compounds for 24 hours and nuclear intensity compared to vehicle is measured.

[3] = tested on: caspase-3; conditions: cited from earlier work; for caspase-3 activation by ligand: tumor cells and neurons
[4] = tested on: neurons; conditions: neuronal cultures treated 24 hours; cited from earlier work

Row | Structure (SMILES) | Mouse liver microsomes, MLM t½ [1] | neuronal phenotype [2] | caspase-3 activation by ligand [3] | inhibition of caspase-3 activation in tumor cells ([3]; tumor cells) | nuclear morphology / nuclear intensity in neurons [4]
1 | C[C@H](CCc1ccc(OC(=O)N(C)C)c(OC(F)(F)F)c1)N1Cc2cccc(F)c2C1 [compound 41] | 9 min | Inactive/IAACon | – | – | –
2 | COc1cc2c(cc1OC)CN(CCCCNC(=O)c1cc(C)ccc1OC)CC2 [RHM-1, N-[4-(3,4-dihydro-6,7-dimethoxyisoquinolin-2(1H)-yl)butyl]-2-methoxy-5-methylbenzamide] | – | – | do not induce caspase-3 activity | inhibits the activation in tumor cells | do not decrease nuclear intensity
3 | CC(C)Oc1cc(CCC(C)(C)N2Cc3cc4c(cc3C2)OCO4)ccc1O [compound 29] | 6 min | Inactive/IAACon | – | – | –
4 | CC(C)Oc1cc(CC[C@@H](C)N2Cc3cc4c(cc3C2)OCO4)ccc1O [compound 25] | 4 min | Inactive/IAACon | – | – | –
5 | COc1ccc(C)cc1NC(=O)OC1C[C@H]2CCC[C@@H](C1)N2CCCCCCN (some centres unmarked) [SV-119] | – | – | activate caspase-3 in tumor cells and neurons | – | cause significant abnormal nuclear morphology in neurons
